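Each compound was tested at five concentrations against cells in 96-well plates for 48 hours. TGI: concentration producing complete growth inhibition.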
Assays:
Assay in all cases: NCI anticancer screen, dose series, 48 h
MOLT-4 leukemia = system: MOLT-4 leukemia
SK-MEL-5 melanoma = system: SK-MEL-5 melanoma
IGROV1 ovarian = system: IGROV1 ovarian
HCT-15 colon = system: HCT-15 colon
SK-MEL-2 melanoma = system: SK-MEL-2 melanoma
T-47D breast = system: T-47D breast
SNB-75 CNS = system: SNB-75 CNS
NCI-H522 lung = system: NCI-H522 lung
KM12 colon = system: KM12 colon
HCC-2998 colon = system: HCC-2998 colon
SW-620 colon = system: SW-620 colon
NCI/ADR-RES ovarian = system: NCI/ADR-RES ovarian
COLO 205 colon = system: COLO 205 colon
RPMI-8226 leukemia = system: RPMI-8226 leukemia
MALME-3M melanoma = system: MALME-3M melanoma
HOP-62 NSCLC = system: HOP-62 NSCLC
M14 melanoma = system: M14 melanoma
A498 renal = system: A498 renal
MDA-N = system: MDA-N
DU-145 prostate = system: DU-145 prostate
SN12C renal = system: SN12C renal
HCT-116 colon = system: HCT-116 colon
HS 578T breast = system: HS 578T breast
UACC-62 melanoma = system: UACC-62 melanoma
BT-549 breast = system: BT-549 breast
NCI-H460 lung = system: NCI-H460 lung
HL-60(TB) leukemia = system: HL-60(TB) leukemia
OVCAR-5 ovarian = system: OVCAR-5 ovarian
786-0 renal = system: 786-0 renal
UO-31 renal = system: UO-31 renal
A549 NSCLC = system: A549 NSCLC
SNB-19 CNS = system: SNB-19 CNS
NCI-H226 lung = system: NCI-H226 lung
MCF7 breast = system: MCF7 breast
SR leukemia = system: SR leukemia
TK-10 renal = system: TK-10 renal
SF-295 CNS = system: SF-295 CNS
OVCAR-8 ovarian = system: OVCAR-8 ovarian
RXF 393 renal = system: RXF 393 renal
UACC-257 melanoma = system: UACC-257 melanoma
ACHN renal = system: ACHN renal
SK-OV-3 ovarian = system: SK-OV-3 ovarian
OVCAR-4 ovarian = system: OVCAR-4 ovarian
K-562 leukemia = system: K-562 leukemia
EKVX NSCLC = system: EKVX NSCLC
HT29 colon = system: HT29 colon
U251 CNS = system: U251 CNS
NCI-H23 lung = system: NCI-H23 lung
SK-MEL-28 melanoma = system: SK-MEL-28 melanoma
PC-3 prostate = system: PC-3 prostate
LOX IMVI melanoma = system: LOX IMVI melanoma
SF-268 CNS = system: SF-268 CNS
CCRF-CEM leukemia = system: CCRF-CEM leukemia
MDA-MB-231 breast = system: MDA-MB-231 breast
MDA-MB-435 = system: MDA-MB-435
OVCAR-3 ovarian = system: OVCAR-3 ovarian
SF-539 CNS = system: SF-539 CNS
CAKI-1 renal = system: CAKI-1 renal
HOP-92 NSCLC = system: HOP-92 NSCLC

O=c1c2cccnc2cc(-c2ccccc2)n1CCO
TGI (MOLT-4 leukemia): > 100 µM | TGI (SK-MEL-5 melanoma): > 100 µM | TGI (IGROV1 ovarian): > 100 µM | TGI (HCT-15 colon): > 100 µM | TGI (SK-MEL-2 melanoma): > 100 µM | TGI (T-47D breast): > 100 µM | TGI (SNB-75 CNS): > 100 µM | TGI (NCI-H522 lung): > 100 µM | TGI (KM12 colon): > 100 µM | TGI (HCC-2998 colon): > 100 µM | TGI (SW-620 colon): > 100 µM | TGI (NCI/ADR-RES ovarian): > 100 µM | TGI (COLO 205 colon): > 100 µM | TGI (RPMI-8226 leukemia): > 100 µM | TGI (MALME-3M melanoma): > 100 µM | TGI (HOP-62 NSCLC): > 100 µM | TGI (M14 melanoma): > 100 µM | TGI (A498 renal): > 100 µM | TGI (MDA-N): > 100 µM | TGI (DU-145 prostate): > 100 µM | TGI (SN12C renal): > 100 µM | TGI (HCT-116 colon): > 100 µM | TGI (HS 578T breast): > 100 µM | TGI (UACC-62 melanoma): > 100 µM | TGI (BT-549 breast): > 100 µM | TGI (NCI-H460 lung): > 100 µM | TGI (HL-60(TB) leukemia): > 100 µM | TGI (OVCAR-5 ovarian): > 100 µM | TGI (786-0 renal): > 100 µM | TGI (UO-31 renal): > 100 µM | TGI (A549 NSCLC): > 100 µM | TGI (SNB-19 CNS): > 100 µM | TGI (NCI-H226 lung): > 100 µM | TGI (MCF7 breast): > 100 µM | TGI (SR leukemia): > 100 µM | TGI (TK-10 renal): > 100 µM | TGI (SF-295 CNS): > 100 µM | TGI (OVCAR-8 ovarian): > 100 µM | TGI (RXF 393 renal): > 100 µM | TGI (UACC-257 melanoma): > 100 µM | TGI (ACHN renal): > 100 µM | TGI (SK-OV-3 ovarian): > 100 µM | TGI (OVCAR-4 ovarian): > 100 µM | TGI (K-562 leukemia): > 100 µM | TGI (EKVX NSCLC): > 100 µM | TGI (HT29 colon): > 100 µM | TGI (U251 CNS): > 100 µM | TGI (NCI-H23 lung): > 100 µM | TGI (SK-MEL-28 melanoma): > 100 µM | TGI (PC-3 prostate): > 100 µM | TGI (LOX IMVI melanoma): > 100 µM | TGI (SF-268 CNS): > 100 µM | TGI (CCRF-CEM leukemia): > 100 µM | TGI (MDA-MB-231 breast): > 100 µM | TGI (MDA-MB-435): > 100 µM | TGI (OVCAR-3 ovarian): > 100 µM

COc1cc(C(c2cc3c(cc2O)OCO3)N2CCCCC2)cc(OC)c1OC (centres undefined)
TGI (SK-MEL-5 melanoma): 34.6 µM | TGI (IGROV1 ovarian): 32.4 µM | TGI (HCT-15 colon): 30.8 µM | TGI (SK-MEL-2 melanoma): 32.9 µM | TGI (T-47D breast): 47.8 µM | TGI (SNB-75 CNS): 33.5 µM | TGI (NCI-H522 lung): 26.7 µM | TGI (KM12 colon): 34 µM | TGI (HCC-2998 colon): 39 µM | TGI (SW-620 colon): 12 µM | TGI (NCI/ADR-RES ovarian): 39.2 µM | TGI (COLO 205 colon): 26.6 µM | TGI (RPMI-8226 leukemia): > 26.9 µM | TGI (MALME-3M melanoma): 26.1 µM | TGI (HOP-62 NSCLC): > 70.9 µM | TGI (M14 melanoma): 18.5 µM | TGI (SF-539 CNS): 33.9 µM | TGI (A498 renal): 35.5 µM | TGI (MDA-N): 19.8 µM | TGI (DU-145 prostate): 35.6 µM | TGI (SN12C renal): 25.1 µM | TGI (HCT-116 colon): 30.4 µM | TGI (HS 578T breast): 43.5 µM | TGI (CAKI-1 renal): 27.6 µM | TGI (UACC-62 melanoma): 30.6 µM | TGI (BT-549 breast): 24.4 µM | TGI (NCI-H460 lung): 45.8 µM | TGI (HL-60(TB) leukemia): 4.16 µM | TGI (OVCAR-5 ovarian): 32.2 µM | TGI (786-0 renal): 12.9 µM | TGI (UO-31 renal): 28.3 µM | TGI (A549 NSCLC): 45.8 µM | TGI (SNB-19 CNS): 46.9 µM | TGI (NCI-H226 lung): 41.6 µM | TGI (HOP-92 NSCLC): 23.1 µM | TGI (MCF7 breast): 29.3 µM | TGI (SR leukemia): > 23.5 µM | TGI (TK-10 renal): 31.2 µM | TGI (SF-295 CNS): > 100 µM | TGI (OVCAR-8 ovarian): 28.1 µM | TGI (RXF 393 renal): 27.6 µM | TGI (UACC-257 melanoma): 25.7 µM | TGI (ACHN renal): 31.1 µM | TGI (SK-OV-3 ovarian): 56.2 µM | TGI (OVCAR-4 ovarian): 25.2 µM | TGI (K-562 leukemia): > 21.3 µM | TGI (EKVX NSCLC): 39.5 µM | TGI (HT29 colon): 33.3 µM | TGI (U251 CNS): 30.2 µM | TGI (NCI-H23 lung): 31.8 µM | TGI (SK-MEL-28 melanoma): 32 µM | TGI (PC-3 prostate): 30.6 µM | TGI (LOX IMVI melanoma): 28.4 µM | TGI (SF-268 CNS): 31.5 µM | TGI (CCRF-CEM leukemia): 19.2 µM | TGI (MDA-MB-231 breast): 29.3 µM | TGI (MDA-MB-435): 16.8 µM | TGI (OVCAR-3 ovarian): 26.9 µM

— PubChem BioAssay (NCI)
